Patent US7012127B1, “Analogues of lipopolysaccharide-binding protein (LBP)-derived peptides that efficiently neutralize lipopolysaccharides (LPS)” (Centro de Ingenicria Genetica y Biotecnologia, priority 1999, dated 2006)

Key:
[1] = tested on: interaction between hLBP and E. coli LPS; experiment: ELISA: binding of biotinylated-LPS to surface-captured human LBP in the presence of peptides; details: LPS and peptide incubated 2 h at room temperature; fixed quantities of peptide
Description: This example describes the capacity of preferred peptides of the invention to block the interaction between LBP and E. coli LPS. An ELISA was used to determine the binding of biotinylated-LPS to surface-captured human LBP, in the presence or absence of fixed quantities of the selected peptides. LPS was biotinylated according to standard procedures. Human LBP (hLBP) was captured by using a specific monoclonal antibody, purified by affinity chromatography. Mixtures of LPS and each peptide were incubated during 2 h at room temperature, and then 100 μL were added to hLBP-containing wells. The binding of biotinylated-LPS to hLBP was detected with horseradish peroxidase-conjugated streptavidin. The assay was developed by adding a chromogenic substrate. […] Each experiment recorded the interaction of hLBP and biotinylated-LPS in absence of peptides, in presence of LBP86-99, and in the example presented in FIG. 2 the effect of a non-related cationic peptide (C5,3).
Human LBP was captured to the plates using a specific monoclonal antibody. Binding of biotinylated-LPS was detected with an streptavidin-horseradish peroxidase conjugate. The extent to which the peptide LBP86-99 (LBP) inhibits this interaction is also shown.
The experimental conditions were similar to those described in FIG. 1. The effect of a non-related cationic peptide, C5,3 is also included.

[2] = tested on: LPS-induced human peripheral blood mononuclear cells (PBMC); experiment: Release of TNF by LPS-induced human PBMC; format: cell-based; details: E. coli 0111:B4 LPS incubated with peptide 2 h at 37° C.; human LBP 200 ng/mL; TNFα in supernatants after 18 h; average of three experiments
Description: In order to determine if the peptides of the present invention were able to neutralize LPS-mediated responses, their ability to reduce the release of TNF by LPS-activated human peripheral blood cells was estimated. This assay evaluates the release of TNF by LPS-induced human peripheral blood mononuclear cells (PBMC), using concentrations of LPS commonly found in septic patients. LPS was incubated with fixed concentrations of each peptide during 2 h at 37° C. and the mixtures were then added to PBMC. The culture medium was supplemented with human LBP (200 ng/mL) and plates were incubated at 37° C. in a 5% CO2 atmosphere. TNFα was measured in culture supernatants after 18 h using a human TNF-α specific ELISA. FIG. 4 represents the average results from three different experiments. […] LBPA95 and LBPA96. […] Similar results were observed when other concentrations of LPS (2 or 10 ng/mL) and hLBP (20 or 100 ng/mL) were used.
The effects on this assay of LBP86-99 (LBP), LBPA91, B6,1 and polymyxin B (PMB) are also shown.

[3] = tested on: E. coli LPS lethal challenge in BALB/c mice; experiment: Endotoxin shock model in Actinomycin D-sensitized mice, survival; format: in vivo; details: Actinomycin D 7.5 μg i.p., E. coli LPS 1 μg/mouse mixed with peptide (1 h, 37° C.), equimolar doses, survival over 120 h, p<0.05 vs. vehicle or B6,1
Description: An endotoxin shock animal model was used to determine if the peptides of this invention were able to block complex physiological responses triggered by LPS. In this model mice were sensitized with Actinomycin D to increase LPS-mediated toxic responses. With this purpose, Actinomycin D (7.5 μg) was administered i.p. to 6 to 8 weeks-old female mice. Simultaneously each mice received LPS, and survival was evaluated every 24 h during 120 h.
The effect of peptides of the present invention on mice survival was assessed by administering E. coli LPS (1 μg/mouse in saline vehicle) or LPS:peptide mixtures mixtures (previously incubated during 1 h at 37° C.) to BALB/c sensitized mice. FIG. 6 represents the results of a representative experiment where the following peptides were each administered at equimolar doses to groups of 20 mice: LBP86-99, LBPA94, LBPAs95, LBPA98 or B6, 1 (cationic, non-related peptide). […] The aforementioned in vivo neutralizing property of the peptides of the invention is relevant for their application in prophylactic or therapeutic methods for sepsis and other associated disorders.
Survival in groups of BALB/c mice treated with LBP86-99 (LBP) and B6,1 is also shown. Mice survival was recorded each 24 h during 120 h.

[4] = tested on: LPS-stimulated human PBMC; experiment: LPS-induced IL-6 production in cultures of human PBMC; format: cell-based; details: at every hLBP concentrations tested
Description: In order to determine if the peptides of the present invention were able to neutralize LPS-mediated responses, their ability to reduce the release of TNF by LPS-activated human peripheral blood cells was estimated. This assay evaluates the release of TNF by LPS-induced human peripheral blood mononuclear cells (PBMC), using concentrations of LPS commonly found in septic patients. LPS was incubated with fixed concentrations of each peptide during 2 h at 37° C. and the mixtures were then added to PBMC. The culture medium was supplemented with human LBP (200 ng/mL) and plates were incubated at 37° C. in a 5% CO2 atmosphere. TNFα was measured in culture supernatants after 18 h using a human TNF-α specific ELISA. […]
This invention provides peptides with advantageous functions over other LBP-derived peptides that have the native sequence or different a.a. replacements to those herein described at positions +1, +5, +6, +7, +9, +10, +11, +12 and +13. […] IL-6 was measured in culture supernatants after 18 h using a human IL-6 specific ELISA. In the represented experiment, the following peptides were evaluated; LPB86-99, LBP-H (LBP86-101, SEQ ID NO. 56)^13, LBPA94, LBPA95, and LBPA98. […]
Results are expressed as % inhibition of IL-6 release compared with the cytokine production in the absence of peptides The effects on this assay of LBP86-99, (LBP), LBP-H and B6,1 are also shown.

Row | Substance | interaction between hLBP and E. coli LPS (binding of biotinylated-LPS to captured hLBP) [1] | LPS-stimulated TNF release by human PBMC [2] | mice survival [3] | reduction of the LPS-triggered response (IL-6) [4]
1 | LBPA97: peptide with a residue at +6, +7 or +12 distinct from those of the invention, SEQ ID No.54 (RVQGRWKVRKSAFK) | not affected | – | – | –
2 | LBPA90: LBP 86-99 peptide analogue, SEQ ID No.3 (RVQGAWKVRKSFFK) | notably impaired | – | – | –
3 | LBPA91: peptide which has tryptophan residue at position (6) replaced with alanine, SEQ ID No.55 (RVQGRAKVRKSFFK) | not affected | did not inhibit | – | –
4 | LBPA94: LBP 86-99 peptide analogue, SEQ ID No.4, essential a.a. at position +9 (RVQGRWKVAKSFFK) | notably impaired | Reduced levels of cytokine release | significantly increased | –
5 | LBPA95: LBP 86-99 peptide analogue, SEQ ID No.5, essential a.a. at position +10 (RVQGRWKVRASFFK) | notably impaired | Reduced levels of cytokine release | significantly increased | more than 70%
6 | LBPA92: peptide with a residue at +6, +7 or +12 distinct from those of the invention, SEQ ID No.53 (RVQGRWAVRKSFFK) | not affected | – | – | –
7 | LBPA98: LBP 86-99 peptide analogue, SEQ ID No.7, essential a.a. at position +13 (RVQGRWKVRKSFAK) | notably impaired | – | significantly increased | –
8 | LBPA86: LBP 86-99 peptide analogue, SEQ ID No.2 (AVQGRWKVRKSFFK) | notably impaired | – | – | –
9 | LBPA96: LBP 86-99 peptide analogue, SEQ ID No.6 (RVQGRWKVRKAFFK) | notably impaired | Reduced levels of cytokine release | – | –
10 | LBP86-99: peptide with the native sequence of the 86-99 a.a. region of human LBP mature protein (RVQGRWKVRKSFFK) [reference compound] | – | Reduced levels of cytokine release | only marginally | –
